Test results taken from publication PMC6745270 (Neuropharmacology, 2019).
Counter-ions that a name gives are not always drawn.

Columns and labels:
rats [1] = settings: ref You et al., 2017, cited from earlier work
[2] = ref Higley et al., 2011, Maramai et al., 2016, Nathan et al., 2012, Stossel et al., 2017, Thanos et al., 2008, Thomsen et al., You et al.; cited from earlier work
[3] = ref Xi and Gardner, 2007; cited from earlier work
rats [4] = experiment: Hot plate thermal nociception test; assay type: in vivo, rat
Long-Evans rats [5] = experiment: Oxycodone self-administration under progressive-ratio; settings: 20 mg/kg i.p., normalized to baseline, vs vehicle
rats [6] = experiment: Open-field locomotor activity; assay type: in vivo, rat; settings: 10 or 20 mg/kg i.p., vs vehicle
wild-type C57BL/6J mice = experiment: Sucrose self-administration; assay type: in vivo, mouse
Long-Evans rats [7] = experiment: Oxycodone self-administration under FR1 reinforcement; assay type: in vivo, rat
DAT-Cre mice = experiment: Optical intracranial self-stimulation; assay type: in vivo, mouse; settings: for effect on oICSS: 5 min prior to testing, vs vehicle
[8] = Phase I metabolic stability in rat liver microsomes; assay type: in vitro ADME; settings: rat liver microsomes fortified with NADPH, 60 min incubation, 10 μM compound
[9] = Pharmacokinetic study in rats, plasma and brain; assay type: in vivo; settings: rat, plasma, po, 10 mg/kg
rats [10] = settings: ref Ashby et al., 2003; cited from earlier work

For `CCc1cc(Cl)c(OC)c(N2CCN(CC(O)CCNC(=O)c3cc4ccccc4[nH]3)CC2)c1` (racemic) [(±)VK4-116], which “effect on oxycodone self-administration” value (rats [1]; FR1 and PR schedules) is on record?
The value was “dose-dependently inhibited oxycodone self-administration”.

And the “effect on oxycodone-triggered reinstatement of drug-seeking” value (rats [1])?
Its value is “suppressed oxycodone-triggered reinstatement of drug-seeking behavior”.

With `Cc1ncoc1-c1nnc(SCCCN2C[C@@H]3C[C@]3(c3ccc(C(F)(F)F)cc3F)C2)n1C` [GSK598809] as the molecule, how does the “effect on food-taking and food-seeking behavior” value [2] read?
The value was “significantly inhibit food-taking and food-seeking behavior”.

With `O=C(NCCCCN1CCN(c2cccc(Cl)c2Cl)CC1)c1ccc2c(c1)Cc1ccccc1-2` [NGB-2904] as the molecule, how does the “effect on cocaine-induced extracellular nucleus accumbens DA” value [3] read?
The value was “enhanced cocaine-induced increases in extracellular nucleus accumbens DA”.

And the “effect on food-taking and food-seeking behavior” value [2]?
The value was “significantly inhibit food-taking and food-seeking behavior”.

For `O=C(NC/C=C/CN1CCN(c2cccc(Cl)c2Cl)CC1)c1ccc(-c2ccccn2)cc1` [PG01037], which “effect on food-taking and food-seeking behavior” value [2] is on record?
Its value is “significantly inhibit food-taking and food-seeking behavior”.

What does the source list for `CCc1cccc(N2CCN(C[C@H](O)CCNC(=O)c3cc4ccccc4[nH]3)CC2)c1Cl.Cl` [R-VK4-40, (R)-N-(4-(4-(2-Chloro-3-ethylphenyl)piperazin-1-yl)-3-hydroxybutyl)-1H-indole-2-carboxamide HCl]?
effect of pretreatment on %MPE (rats [4]; 20 mg/kg i.p., after 1 mg/kg oxycodone): significant elevation of %MPE; effect of pretreatment on oxycodone analgesia dose-response curve (rats [4]; 10 or 20 mg/kg i.p. 30 min before oxycodone 0.5-4 mg/kg i.p.): shifted the oxycodone dose-response curve significantly upward; effect on PR break-point for oxycodone self-administration (Long-Evans rats [5]): significant decrease in break-point; effect on open-field locomotion (rats [6]): no effect on open-field locomotion; effect on number of sucrose reinforcers earned (wild-type C57BL/6J mice; 3 mg/kg i.p., vs vehicle): no statistically significant differences; effect on number of sucrose reinforcers earned (wild-type C57BL/6J mice; 10 mg/kg i.p., vs vehicle and 3 mg/kg): significantly reduced the number of sucrose reinforcers earned; effect on oxycodone self-administration (infusions earned) (Long-Evans rats [7]; FR1, 10 or 20 mg/kg i.p. 30 min before session, oxycodone 0.0031-0.05 mg/kg/infusion): dose-dependent reduction in oxycodone self-administration; effect on daily oxycodone intake (Long-Evans rats [7]; FR1, 10 or 20 mg/kg i.p. pretreatment): reduced oxycodone intake at the 0.00625 and 0.05 mg/kg doses; effect on inactive lever responding (Long-Evans rats [7]; FR1 oxycodone self-administration): no effect on inactive lever responding; effect on oICSS, compound alone (DAT-Cre mice; R-VK4-40 alone i.p. (10, 20 mg/kg as printed elsewhere in the source)): significant reduction in oICSS; effect of pretreatment on oxycodone-enhanced oICSS (DAT-Cre mice; pretreatment before 1 mg/kg oxycodone): significantly reduced low-dose (1 mg/kg) oxycodone enhancements in oICSS; % intact remaining [8]: 86±2%; AUC(0-t) [9]: 1.99 ± 0.28 µM·h; Cmax [9]: 310 ± 110 nM

With `N#Cc1ccc2c(c1)CCN(CCC1CCC(NC(=O)c3ccnc4ccccc34)CC1)C2` (stereo not shown) [SB-277011A] as the molecule, how does the “effect on opioid-induced conditioned place preference” value (rats [10]) read?
Its value is “significantly inhibits opioid-induced conditioned place preferences (CPP)”.

What about the “effect on food-taking and food-seeking behavior” value [2] of the same molecule?
The value was “significantly inhibit food-taking and food-seeking behavior”.

What does the source list for `COc1ccc2c3c1O[C@H]1C(=O)CC[C@@]4(O)[C@@H](C2)N(C)CC[C@]314` [oxycodone, Oxycodone HCl, reference compound]?
time of peak antinociceptive effect (rats [4]; hot plate, after administration): 30 min; effect on oICSS (DAT-Cre mice; 1 mg/kg i.p.): significant increase in oICSS; effect on oICSS (DAT-Cre mice; 3 mg/kg i.p.): significant reduction in oICSS
